According to US8008329B2 (Dong Wha Pharmaceutical Co., Ltd., priority 2008, dated 2011):
Marks after values point to notes of the source that are not given here.

Tested on: osteoclast differentiation
Experiment: Osteoclast differentiation in co-culture of mouse bone marrow cells and ST2 cells, TRAP staining (Examples 8-9)
Assay type: cell-based
Conditions: for % number of osteoclast (vs. solvent control group): 0.1 μM each, day 7; for activity at 0.1 µM: Mus musculus, Osteoclast, 168 h, Individual treatment (compounds), day 7, read-out: % number of osteoclast (vs. solvent control group)
In short: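 Readout was TRAP-positive multinucleated (≥6 nuclei) cells on day 7, reported as % of 0.1% DMSO control, mean±SD of 4 wells. Cells were mouse (male ddY) bone marrow plus ST2 co-cultures driven by 10^−8 M vitamin D3/dexamethasone. Benzamidines, alendronic acid or risedronic acid were added at 0.1 μM alone or combined, with media renewed days 3 and 5.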

[1] = Combination treatment (alendronic acid + compounds)
[2] = Combination treatment (risedronic acid + compounds)

| Compound | % number of osteoclast (vs. solvent control group) [1] | % number of osteoclast (vs. solvent control group) [2] | activity at 0.1 µM [%] |
| --- | --- | --- | --- |
| Cc1nc(-c2ccc(OCc3ccc(COc4ccc(C(=N)NO)cc4)cc3)cc2)c(C(C)C)s1 [Compound 185, N-hydroxy-4-{4-[4-(5-isopropyl-2-methyl-1,3-thiazol-4-yl)-phenoxymethyl]-benzyloxy}-benzamidine] | 57 ± 13.9% | 45 ± 1.4^ac % | 81 ± 7 |
| CNC(=O)c1sc(N)nc1-c1ccc(OCCCCCOc2ccc(C(=N)NO)cc2)cc1 [Compound 285, N-hydroxy-4-{5-[4-(2-amino-5-methylcarbamoyl-thiazol-4-yl)-phenoxy]-pentyloxy}-benzamidine] | 53 ± 0.9% | 40 ± 3.9^ac % | 70 ± 8 |
| CN(CCN1CCOCC1)c1nc(-c2ccc(OCCCCCOc3ccc(C(=N)NO)cc3)cc2)c(CN2CCOCC2)s1 [Compound 313, N-hydroxy-4-[5-(4-{2-[methyl-(2-morpholin-4-yl-ethyl)-amino]-5-morpholin-4-ylmethyl-thiazol-4-yl}-phenoxy)-pentyloxy]-benzamidine] | 23 ± 5.9^ab % | 13 ± 3.3^ac % | 53 ± 6 |
| CN(C)c1nc(-c2ccc(OCCCCCOc3ccc(C(=N)NO)cc3)cc2)c(CCN2CCSCC2)s1 [Compound 267, N-hydroxy-4-(5-{4-[2-dimethylamino-5-(2-thiomorpholin-4-yl-ethyl)-thiazol-4-yl]-phenoxy}-pentyloxy)-benzamidine] | 33 ± 5.3^ab % | 13 ± 2.4^ac % | 68 ± 8.6 |
| N=C(NO)c1ccc(OCCCCCOc2ccc(-c3nc(N4CCOCC4)sc3N3CCSCC3)cc2)cc1 [Compound 291, N-hydroxy-4-{5-[4-(2-morpholin-4-yl-5-thiomorpholin-4-yl-thiazol-4-yl)-phenoxy]-pentyloxy}-benzamidine] | 20 ± 3.8^ab % | 12 ± 3.5^ac % | 44 ± 4.9 |
| CCCCCc1nc(-c2ccc(OCCCCCOc3ccc(C(=N)NO)cc3)cc2)c(C)s1 [Compound 15, N-hydroxy-4-{5-[4-(5-methyl-2-pentyl-1,3-thiazol-4-yl)phenoxy]pentyloxy}-benzamidine] | 43 ± 11.4% | 45 ± 9.2^ac % | 69 ± 5.5 |
| N=C(NO)c1ccc(OCCCCCOc2ccc(-c3nc(C4CCCCC4)sc3CCNCCN3CCOCC3)cc2)cc1 [Compound 248, N-hydroxy-4-[5-(4-{2-cyclohexyl-5-[2-(2-morpholin-4-yl-ethylamino)-ethyl]-thiazol-4-yl}-phenoxy)-pentyloxy]-benzamidine] | 33 ± 5.6^b % | 27 ± 4.9^ac % | 49 ± 8.7 |
| CC(C)NCc1sc(N(C)CCN2CCOCC2)nc1-c1ccc(OCCCCCOc2ccc(C(=N)NO)cc2)cc1 [Compound 317, N-hydroxy-4-[5-(4-{5-(isopropylamino-methyl)-2-[methyl-(2-morpholin-4-yl-ethyl)-amino]-thiazol-4-yl}-phenoxy)-pentyloxy]-benzamidine] | 18 ± 4.6^ab % | 16 ± 3.2^ac % | 45 ± 3.2 |
| CCCN(CCC)c1nc(-c2ccc(OCCCCCOc3ccc(C(=N)NO)cc3)cc2)c(CC2CCCC2)s1 [Compound 149, N-hydroxy-4-{5-[4-(5-cyclopentylmethyl-2-dipropylamino-1,3-thiazol-4-yl)phenoxy]pentyloxy}-benzamidine] | 40 ± 8.8% | 31 ± 2.5^ac % | 63 ± 9.9 |
| CC(C)c1sc(N(C)C)nc1-c1ccc(OCCCCCOc2ccc(C(=N)NO)cc2)cc1 [Compound 161, N-hydroxy-4-{5-[4-(5-isopropyl-2-dimethylamino-1,3-thiazol-4-yl)phenoxy]pentyloxy}-benzamidine] | 56 ± 4.3^ab % | 47 ± 14.0^a % | 79 ± 5.1 |
